# Test results from patent US8334382B2, “Substituted biaryl piperazinyl-pyridine analogues” (Neurogen Corporation, priority 2004, dated 2012).
# Columns and labels:
# VR = details: binds to VR with no more than moderate affinity; cited from earlier work
# human capsaicin receptor = biological target: T1, human capsaicin receptor (Homo sapiens, UniProt Q8NER1); experiment: Calcium mobilization assay, determination of antagonist activity; type: cell-based; details: capsaicin at EC50; cells expressing human capsaicin receptor; Example 6
# T1 construct: expressed in transfected cells; host or cells: HEK293, stably transfected with pBK-CMV construct
# T1 sequence (Q8NER1 whole entry): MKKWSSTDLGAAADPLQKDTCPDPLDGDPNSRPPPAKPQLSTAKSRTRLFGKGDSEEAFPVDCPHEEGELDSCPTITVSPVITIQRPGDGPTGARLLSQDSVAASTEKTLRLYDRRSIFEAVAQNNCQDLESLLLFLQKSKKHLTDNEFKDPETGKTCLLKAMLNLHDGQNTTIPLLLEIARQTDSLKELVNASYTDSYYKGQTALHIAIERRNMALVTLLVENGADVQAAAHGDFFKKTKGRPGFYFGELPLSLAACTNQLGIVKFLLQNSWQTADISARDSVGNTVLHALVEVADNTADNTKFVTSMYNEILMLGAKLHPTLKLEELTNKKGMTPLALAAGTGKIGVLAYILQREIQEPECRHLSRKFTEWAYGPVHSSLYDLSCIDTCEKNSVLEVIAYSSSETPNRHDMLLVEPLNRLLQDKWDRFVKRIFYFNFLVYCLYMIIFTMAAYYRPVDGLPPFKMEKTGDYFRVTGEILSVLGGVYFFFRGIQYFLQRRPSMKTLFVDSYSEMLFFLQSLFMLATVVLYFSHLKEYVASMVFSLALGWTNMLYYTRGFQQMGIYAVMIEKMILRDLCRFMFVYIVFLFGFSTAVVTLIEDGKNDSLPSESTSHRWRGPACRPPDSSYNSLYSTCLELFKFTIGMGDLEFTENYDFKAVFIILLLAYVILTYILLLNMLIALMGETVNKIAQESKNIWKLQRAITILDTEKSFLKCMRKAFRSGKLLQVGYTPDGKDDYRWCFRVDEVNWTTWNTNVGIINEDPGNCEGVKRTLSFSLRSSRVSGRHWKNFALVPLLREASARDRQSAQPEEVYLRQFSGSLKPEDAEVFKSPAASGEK
# Method in brief: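 HEK293 cells stably expressing full-length human TRPV1, loaded with Fluo-3 AM in KRH buffer pH 7.4, preincubated with compound (final 1-5 µM) in the dark at room temperature for 0.5-6 h, then stimulated with capsaicin at its EC50. FLIPR fluorescence gave IC50 as concentration halving the capsaicin response.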
Compound,Ki (VR) [nM],IC50 (human capsaicin receptor) [nM]
Cl.Cl.Cl.Cl.Cl.Cl.N.N.N.N.N.N.N.N.N.N.N.N.N.N.[O-2].[O-2].[Ru+3].[Ru+3].[Ru+4] [ruthenium red],≥ 140000,–
"Cc1cc(C(=O)NC2CCCC2)cnc1N1CCN(c2cc(-c3ccc(F)cc3)nc(N3CCCC3C)n2)CC1 (stereo not shown) [Example 108, N-Cyclopentyl-6-{4-[6-(4-fluoro-phenyl)-2-(2-methyl-pyrrolidin-1-yl)-pyrimidin-4-yl]-piperazin-1-yl}-5-methyl-nicotinamide]",–,≤ 1000
"Cc1cccc(-c2cc(N3CCN(c4ncc(CO)cc4C)CC3)nc(N3CCCC3C)n2)c1 (stereo not shown) [Example 72, (5-Methyl-6-{4-[2-(2-methyl-pyrrolidin-1-yl)-6-m-tolyl-pyrimidin-4-yl]-piperazin-1-yl}-pyridin-3-yl)-methanol]",–,≤ 1000
"C[C@@H]1COCCN1c1nc(-c2ccc(F)cc2)cc(N2CCN(c3ncc(C(=O)O)cc3Cl)CC2)n1 [Example 159, 5-Chloro-6-{4-[6-(4-fluoro-phenyl)-2-(3-(R)-methyl-morpholin-4-yl)-pyrimidin-4-yl]-piperazin-1-yl}-nicotinic acid]",–,≤ 1000
"COCCNC(=O)c1cnc(N2CCN(c3cc(-c4ccc(F)cc4)nc(N4CCCC4C)n3)CC2)c(C)c1 (stereo not shown) [Example 109, 6-{4-[6-(4-fluorophenyl)-2-(2-methylpyrrolidin-1-yl)pyrimidin-4-yl]piperazin-1-yl}-N-(2-methoxyethyl)-5-methylnicotinamide]",–,≤ 1000
"COCCCNC(=O)c1cnc(N2CCN(c3cc(-c4ccc(F)cc4)nc(N4CCCC4C)n3)CC2)c(C)c1 (stereo not shown) [Example 110, 6-{4-[6-(4-fluorophenyl)-2-(2-methylpyrrolidin-1-yl)pyrimidin-4-yl]piperazin-1-yl}-N-(3-methoxypropyl)-5-methylnicotinamide]",–,≤ 1000
"Cc1cc(C(=O)O)cnc1N1CCN(c2cc(-c3ccc(F)cc3)nc(N3CCCC3C)n2)CC1 (stereo not shown) [Example 36, 6-{4-[6-(4-Fluoro-phenyl)-2-(2-methyl-pyrrolidin-1-yl)-pyrimidin-4-yl]-piperazin-1-yl}-5-methyl-nicotinic acid]",–,≤ 1000
"CC1CCCN1c1nc(-c2ccc(F)cc2)cc(N2CCN(c3ncc(CC(=O)O)cc3Cl)CC2)n1 (stereo not shown) [Example 39, (5-Chloro-6-{4-[6-(4-fluoro-phenyl)-2-(2-methyl-pyrrolidin-1-yl)-pyrimidin-4-yl]-piperazin-1-yl}-pyridin-3-yl)-acetic acid]",–,≤ 1000
"Cc1cc(C(N)=O)cnc1N1CCN(c2cc(-c3ccncc3)nc(N3CCCC3C)n2)CC1 (stereo not shown) [Example 89, 5-Methyl-6-{4-[2-(2-methyl-pyrrolidin-1-yl)-6-pyridin-4-yl-pyrimidin-4-yl]-piperazin-1-yl}-nicotinamide]",–,≤ 1000
"Cc1cc(C(=O)N2CCCC2C)cnc1N1CCN(c2cc(-c3ccc(F)cc3)nc(N3CCCC3C)n2)CC1 (stereo not shown) [Example 135, 4-(4-fluorophenyl)-6-(4-{3-methyl-5-[(2-methylpyrrolidin-1-yl)carbonyl]pyridin-2-yl}piperazin-1-yl)-2-(2-methylpyrrolidin-1-yl)pyrimidine]",–,≤ 1000
"Cc1cc(-c2ncc[nH]2)cnc1N1CCN(c2cc(-c3ccc(F)cc3)nc(N3CCC[C@H]3C)n2)[C@H](C)C1 [Example 169, 4-(4-Fluoro-phenyl)-6-{4-[5-(1H-imidazol-2-yl)-3-methyl-pyridin-2-yl]-2-(R)-methyl-piperazin-1-yl}-2-(2-(R)-methyl-pyrrolidin-1-yl)-pyrimidine]",–,≤ 1000
"Cc1cc(C(N)=O)cnc1N1CCN(c2cc(-c3ccccc3)nc(N3CCCC3C)n2)CC1 (stereo not shown) [Example 87, 5-Methyl-6-{4-[2-(2-methyl-pyrrolidin-1-yl)-6-phenyl-pyrimidin-4-yl]-piperazin-1-yl}-nicotinamide]",–,≤ 1000
"Cc1cc(C(=O)NCC2CCCO2)cnc1N1CCN(c2cc(-c3ccc(F)cc3)nc(N3CCCC3C)n2)CC1 (stereo not shown) [Example 111, 6-{4-[6-(4-fluorophenyl)-2-(2-methylpyrrolidin-1-yl)pyrimidin-4-yl]piperazin-1-yl}-5-methyl-N-(tetrahydrofuran-2-ylmethyl)nicotinamide]",–,≤ 1000
"Cc1cc(C(=O)O)cnc1N1CCN(c2cc(-c3ccc(F)cc3)nc(N3CCC[C@H]3C)n2)[C@@H](C)C1 [Example 170, 6-{4-[6-(4-Fluoro-phenyl)-2-(2-(R)-methyl-pyrrolidin-1-yl)-pyrimidin-4-yl]-3-(S)-methyl-piperazin-1-yl}-5-methyl-nicotinic acid]",–,≤ 1000
"C[C@@H]1CN(c2ncc(C(=O)O)cc2Cl)CCN1c1cc(-c2ccc(F)c(Cl)c2)nc(N2CCC[C@H]2C)n1 [Example 103, 5-Chloro-6-{4-[6-(3-chloro-4-fluoro-phenyl)-2-(2-(R)-methyl-pyrrolidin-l-yl)-pyrimidin-4-yl]-3-(R)-methyl-piperazin-1-yl}-nicotinic acid]",–,≤ 1000
"Cc1cc(CC(=O)OC(C)(C)C)cnc1N1CCN(c2cc(-c3ccc(F)cc3)nc(N3CCC[C@H]3C)n2)[C@H](C)C1 (relative stereo) [Example 190, tert-butyl rel-{6-[(3R)-4-{6-(4-fluorophenyl)-2-[(2R)-2-methylpyrrolidin-1-yl]pyrimidin-4-yl}-3-methylpiperazin-1-yl]-5-methylpyridin-3-yl}acetate]",–,≤ 1000
"COCC(C)NC(=O)c1cnc(N2CCN(c3cc(-c4ccc(F)cc4)nc(N4CCCC4C)n3)CC2)c(C)c1 (stereo not shown) [Example 117, 6-{4-[6-(4-fluorophenyl)-2-(2-methylpyrrolidin-1-yl)pyrimidin-4-yl]piperazin-1-yl}-N-(2-methoxy-1-methylethyl)-5-methylnicotinamide]",–,≤ 1000
"Cc1cc(C(=O)O)cnc1N1CCN(c2cc(-c3ccncc3)nc(N3CCCC3C)n2)[C@H](C)C1 (stereo partly drawn) [Example 70, 5-Methyl-6-{3-(R)-methyl-4-[2-(2-methyl-pyrrolidin-1-yl)-6-pyridin-4-yl-pyrimidin-4-yl]-piperazin-1-yl}-nicotinic acid]",–,≤ 1000
"C[C@@H]1CN(c2ncc(C(=O)O)cc2Cl)CCN1c1cc(-c2ccccc2)nc(N2CCC[C@H]2CO)n1 [Example 163, 5-Chloro-6-{4-[2-(2-(S)-hydroxymethyl-pyrrolidin-1-yl)-6-phenyl-pyrimidin-4-yl]-3-(R)-methyl-piperazin-1-yl}-nicotinic acid]",–,≤ 1000
